Structures can show the parent of a compound that is named as a salt.
Legend:
[1] = Reaction of anhydride (9) with CH3OH; format: physicochemical; details: methanolic solution
From the text: (§1) The latter band under went a hypsochromic shift to […] after addition of dil NaOH.

[2] = target: T1, Farnesyl-protein transferase (FTase) (Bos taurus, UniProt P29702+P49355); assay: Inhibition of Ras farnesylation in vitro (FTase inhibition, Ras-CVLS and [3H]FPP); format: biochemical, bovine; details: for IC50: Ras-CVLS 3.5 μM, 0.25 μM [3H]FPP, partially purified FTase from bovine brain, assay buffer pH 7.5
T1 construct: Farnesyl-protein transferase (FTase) from bovine brain; from tissue; host or cells: bovine brain, partially purified (DEAE-Sephacel, N-octyl agarose, mono Q)
Protocol: The intrinsic farnesyl-protein transferase (FTase) activity of representative compounds of this invention was measured by the assay as described below:
Farnesyl-protein transferase (FTase) from bovine brain was chromatographed on DEAE-Sephacel (Pharmacia, 0-0.8M NaCl gradient elution), N-octyl agarose (Sigma, 0-0.6M NaCl gradient elution), and a mono Q HPLC column (Pharmacia, 0-0.3M NaCl gradient). Ras-CVLS (Cys-Val-Leu-Ser) at 3.5 μM, 0.25 μM [^3 H]FPP, and the indicated compounds were incubated with this partially purified enzyme preparation. The FTase inhibition data presented below is a measurement of the ability of the test compound to inhibit Ras farnesylation in vitro.

[3] = Equilibrium between diacid (10) and anhydride (9) in solution, pH dependence (UV); format: physicochemical; details: for Predominant form in anhydride/diacid equilibrium: in solution, pH dependent
From the text: The equilibrium between diacid (10) and anhydride (9) in a solution is pH dependent. […] However, when basified with dil NaOH, this maximum shifted to ^λ max 243 nm. This shift is clear evidence of opening of the anhydride into the diacid.
as §1

Row | Reactivity with CH3OH [1] | IC50 [2] [nM] | Predominant form in anhydride/diacid equilibrium [3] | SMILES | Form present under assay conditions ([3]; CH3OH-HEPES buffer (7:5), pH 7.5, UV maximum 243 nm) | RAS farnesyl transferase inhibitory activity of trapped diacid salt ([2]; open diacid form (10) trapped as diisopropylethylamine salt)
1 | reacts slowly with CH3 OH | 46 | predominates when the solution is acidic | CCCCCCCCCCCCCCC1=C(C)C(=O)OC1=O [Compound (9)] | exits in the open dicarboxylate form of compound (10) | –
2 | – | 46 | predominates when the solution is basic | CCCCCCCCCCCCCC/C(C(=O)O)=C(\C)C(=O)O [Compound (10)] | – | –
3 | – | – | – | CCCCCCCCCCCCCC/C(C(=O)O)=C(\C)C(=O)O [diisopropylethylamine salt] | – | without any loss of RAS farnesyl transferase inhibitory activity

Reference: US5420157A, “Inhibitors of farnesyl protein transferase or prodrugs thereof” (Merck & Co., Inc., priority 1991, dated 1995)
